# Data reported in patent US10082496B2, “Targeting emopamil binding protein (EBP) with small molecules that induce an abnormal feedback response by lowering endogenous cholesterol biosynthesis” (Board of Regents of the University of Texas System, priority 2014, dated 2018).
# Assays:
# S9 half-life = assay type: in vitro ADME; conditions: S9 fraction; read-out: S9 T1/2
# DLD-1 = test: In vitro APC inhibition assay (MTT), DLD-1; assay type: cell-based; conditions: Homo sapiens
# Description: (§1) The small molecule anti-cancer compounds were evaluated for the ability to inhibit the activity of APC in an in vitro assay.
# (§2) Reagents required for the assay are: (3-[4,5-Dimethylthiazol-2-yl]-2,5-diphenyltetrazolium bromide; Thiazolyl blue; RPI corp., cat# M92050); RPMI-1640 or Medium of Choice (i.e. DMEM) without phenol red; 1M Hepes; 100 mM NaPyruvate; 1000× Gentamicin (50 mg/ml); 100× Penicillin/Streptomycin/Fungizone; 1×PBS; Triton X-100; 1N HCl and Isopropanol. To make the MTT solution (10×), MTT powder was dissolved into complete RPMI (or DMEM solution) to a final concentration of 5 mg/mL and was sterilized by filtration with a 0.2 μm filter. The MTT solubilization solution contained 10% Triton X-100, 0.1N and 80% isopropanol. MTT solution was diluted to 1× with complete medium at 12 mL per plate. The culture dishes (96 wells) were removed from the incubator and the media was discarded. […] The cells were removed from the incubator and the MTT solution was discarded.
# (§3) Percent inhibition was determined relative to control reactions without inhibitor, and half maximal inhibitory concentration (IC50) values were determined using a standard four parameter fit to the inhibition data.
# HT-29 = test: In vitro APC inhibition assay (MTT), HT-29; assay type: cell-based; conditions: Homo sapiens
# Description: as §1, §2, §3
# HCT-116 = test: In vitro APC inhibition assay (MTT), HCT-116; assay type: cell-based; conditions: Homo sapiens, HCT-116, read-out: IC50 (nM) in HCT-116
# Description: as §1
# Reagents required for the assay are: (3-[4,5-Dimethylthiazol-2-yl]-2,5-diphenyltetrazolium bromide; Thiazolyl blue; RPI corp., cat# M92050); RPMI-1640 or Medium of Choice (i.e. DMEM) without phenol red; 1M Hepes; 100 mM NaPyruvate; 1000× Gentamicin (50 mg/ml); 100× Penicillin/Streptomycin/Fungizone; 1×PBS; Triton X-100; 1N HCl and Isopropanol. To make the MTT solution (10×), MTT powder was dissolved into complete RPMI (or DMEM solution) to a final concentration of 5 mg/mL and was sterilized by filtration with a 0.2 μm filter. The MTT solubilization solution contained 10% Triton X-100, 0.1N and 80% isopropanol. MTT solution was diluted to 1× with complete medium at 12 mL per plate. The culture dishes (96 wells) were removed from the incubator and the media was discarded. The plates were washed three times with 1×PBS. 100 μl of 1×MTT solution was added to each well and the plates were incubated in a tissue culture incubator for 2-4 hours, depending on the cell line. The cells were removed from the incubator and the MTT solution was discarded. 200 μl of 1×MTT solubilization solution was added to each well using a multi-channel pipetor and the cells were placed on an orbital shaker for 10 minutes. The results were read on a microtiter plate reader (absorbance=570 nm, reference=700 nm) and data was exported.
# as §3
# DLD1 cells = test: Dose response studies in CRC line DLD1 (truncated APC); assay type: cell-based, human; conditions: varying doses
# Description: These 14 compounds then were obtained commercially and their IC50 determined by performing dose response studies with half log dilution series at 12 concentration points in two authentic CRC lines: HCT116 (wt APC) and DLD1 (truncated APC).
# DLD-1 cells normally are cultured in 10% serum medium, and they are rapidly shifted to 0.2% serum medium for dose response studies.
Compound,"IC50 (DLD-1; DLD-1, DLD-1 (truncated APC)) [nM]",IC50 (HCT-116) [nM],further results
CC1CCN(C2CCN(S(=O)(=O)c3c(C(C)C)cc(C(C)C)cc3C(C)C)CC2)CC1,0.7,–,half-life (S9 half-life): 59 min
CC1CCN(C2CCN(S(=O)(=O)c3cccc4c3OCCO4)CC2)CC1,10,–,half-life (S9 half-life): 22.6 min
CC1CCN(C2CCN(Cc3ccc(OC(F)(F)F)cc3)CC2)CC1,19,–,–
CC1CCCN(C2CCN(S(=O)(=O)c3ccc(C(F)(F)F)cc3)CC2)C1 (stereo not shown),29,–,–
CC1CCN(C2CCN(S(=O)(=O)c3ccc(OC(F)(F)F)c(Br)c3)CC2)CC1,29,–,–
CC1CCCN(C2CCN(S(=O)(=O)c3ccc(OC(F)(F)F)cc3)CC2)C1 (stereo not shown),31,–,–
COc1ccc(S(=O)(=O)N2CCC(N3CCC(C)CC3)CC2)c(OC)c1,41,–,–
CC1CCN(C2CCN(S(=O)(=O)c3cccc(OC(F)(F)F)c3)CC2)CC1,56,–,–
Cc1cc(C)c(S(=O)(=O)N2CCC([N+]3(C)CCCC3)CC2)c(C)c1,69,–,–
CCCCC#Cc1cc(S(=O)(=O)N2CCC(N3CCC(C)CC3)CC2)ccc1OC(F)(F)F,147,–,–
Cc1cc(C)c(S(=O)(=O)N2CCC(N3CCCC3)CC2)c(C)c1,172,–,–
CC1CCN(C2CCN(S(=O)(=O)c3ccc(OC(F)(F)F)c(C#CCCCCO)c3)CC2)CC1,205,–,–
CC1CCCN(C2CCN(S(=O)(=O)c3ccc(Oc4ccccc4)cc3)CC2)C1 (stereo not shown),244,–,–
CC1CCN(C2CCN(S(=O)(=O)c3ccc(Oc4ccccc4)cc3)CC2)CC1,253,–,–
CC1CCCN(C2CCN(S(=O)(=O)c3ccc(F)cc3)CC2)C1 (stereo not shown),255,–,–
CC1CCCN(C2CCN(S(=O)(=O)c3ccc([N+](=O)[O-])cc3)CC2)C1 (stereo not shown),366,–,–
CC(C)c1cc(C(C)C)c(S(=O)(=O)N2CCC(N3CCCC3)CC2)c(C(C)C)c1,374,–,–
CC1CCN(C2CCN(S(=O)(=O)c3ccccc3OC(F)(F)F)CC2)CC1,421,–,–
CC1CCN(C2CCN(S(=O)(=O)c3cccc(C(C)(C)C)c3)CC2)CC1,463,–,–
O=S(=O)(c1ccc(OC(F)(F)F)cc1)N1CCC(N2CCOCC2)CC1,501,–,–
C[N+]1(C2CCN(S(=O)(=O)c3cccc4ccccc34)CC2)CCCC1,2300,–,–
O=S(=O)(c1cccc2ccccc12)N1CCC(N2CCCC2)CC1,3900,–,–
C[C@H]1CC[N@@+](C)(C2CCN(S(=O)(=O)c3ccccc3)CC2)CC1,~7960,–,–

Compound,"IC50 (DLD-1; DLD-1, DLD-1 (truncated APC)) [nM]",IC50 (HCT-116) [nM],further results
C[C@H]1CC[N@+](C)(C2CCN(S(=O)(=O)c3ccccc3)CC2)CC1,> 10000,–,–
COc1ccc(S(=O)(=O)N2CCC([N+]3(C)CCCC3)CC2)cc1,> 10000,–,–
C#CCC1CCCCN1C1CCN(S(=O)(=O)c2ccccc2)CC1 (stereo not shown),–,> 10000,"IC50 (HT-29; HT-29, HT-29 (truncated APC)): 1100 nM"
C#CCOCCC1CCN(C2CCN(S(=O)(=O)c3ccccc3)CC2)CC1,–,> 10000,"IC50 (HT-29; HT-29, HT-29 (truncated APC)): 35 nM"
C#CCOCCC1CCCCN1C1CCN(S(=O)(=O)c2ccccc2)CC1 (stereo not shown),–,> 10000,"IC50 (HT-29; HT-29, HT-29 (truncated APC)): 2300 nM"
C#CCC1CCN(C2CCN(S(=O)(=O)c3ccccc3)CC2)CC1,18,> 10000,"half-life (S9 half-life): 25.2 min; IC50 (HT-29; HT-29, HT-29 (truncated APC)): 4 nM"
C#CCOc1ccc(C(=O)c2ccccc2)cc1S(=O)(=O)N1CCC(N2CCC(C)CC2)CC1,504,> 10000,"IC50 (HT-29; HT-29, HT-29 (truncated APC)): 185 nM"
C#CCOc1ccc(CN2CCC(N3CCC(C)CC3)CC2)cc1N=[N+]=[N-],921,> 10000,"IC50 (HT-29; HT-29, HT-29 (truncated APC)): 437 nM"
C#CCOc1ccc(N=[N+]=[N-])cc1S(=O)(=O)N1CCC(N2CCC(C)CC2)CC1,15000,> 10000,"IC50 (HT-29; HT-29, HT-29 (truncated APC)): 4500 nM"
C#CCC1CCN(C2CCN(S(=O)(=O)c3ccccc3N=[N+]=[N-])CC2)CC1,5300,–,–
C#CCC1CCN(C2CCN(S(=O)(=O)c3ccc(N=[N+]=[N-])cc3)CC2)CC1,235,–,–
C#CCC1CCN(C2CCN(S(=O)(=O)c3cccc(N=[N+]=[N-])c3)CC2)CC1,1900,–,–
Cc1nc(Cl)sc1S(=O)(=O)N1CCC(N2CCC(C)CC2)CC1,–,> 10000,–
Cc1cc(C)c(S(=O)(=O)N2CCC(N3CCCCC3)CC2)c(C)c1,–,> 10000,–
Cc1cc(C)c(S(=O)(=O)N2CCC(N3CCOCC3)CC2)c(C)c1,–,> 10000,–
Cc1cc(C)c(S(=O)(=O)N2CCC(N3CCC(c4ccccc4)CC3)CC2)c(C)c1,–,> 10000,–
Cc1cc(C)c(S(=O)(=O)N2CCC(N3CCC(CCC#N)CC3)CC2)c(C)c1,–,> 10000,–
CC1CCN(C2CCN(S(=O)(=O)c3ccc(C#N)cc3)CC2)CC1,–,> 10000,–
CC1CCN(C2CCN(S(=O)(=O)c3ccc(OC(F)F)cc3)CC2)CC1,–,> 10000,–
CC1CCN(C2CCN(S(=O)(=O)c3cccnc3)CC2)CC1,–,> 10000,"IC50 (HT-29; HT-29, HT-29 (truncated APC)): 2200 nM"
Cc1cc(C)c(S(=O)(=O)N2CCC(N3CCC(C)OC3)CC2)c(C)c1 (stereo not shown),–,> 10000,"IC50 (HT-29; HT-29, HT-29 (truncated APC)): 61 nM"
CC1CCN(C2CCN(S(=O)(=O)c3ccc4ncsc4c3)CC2)CC1,38,> 10000,"IC50 (HT-29; HT-29, HT-29 (truncated APC)): 26 nM"
CC1CCN(C2CCN(S(=O)(=O)c3ccc(Br)cc3)CC2)CC1,–,> 10000,"IC50 (HT-29; HT-29, HT-29 (truncated APC)): 1.2 nM"

Compound,"IC50 (DLD-1; DLD-1, DLD-1 (truncated APC)) [nM]",IC50 (HCT-116) [nM],further results
CC1CCN(C2CCN(S(=O)(=O)c3ccc(-c4ccccc4)cc3)CC2)CC1,–,> 10000,"IC50 (HT-29; HT-29, HT-29 (truncated APC)): 234 nM"
Cc1cc(C)c(S(=O)(=O)N2CCC(N3CCC(Cc4ccccc4)CC3)CC2)c(C)c1,–,> 10000,–
COc1ccc(Br)cc1S(=O)(=O)N1CCC(N2CCC(C)CC2)CC1,–,> 10000,–
CC1CCN(C2CCN(S(=O)(=O)c3ccc(-c4ccc(Cl)cc4)cc3)CC2)CC1,–,> 10000,"IC50 (HT-29; HT-29, HT-29 (truncated APC)): 112 nM"
COc1ccc(-c2ccc(S(=O)(=O)N3CCC(N4CCC(C)CC4)CC3)cc2)cc1,–,> 10000,"IC50 (HT-29; HT-29, HT-29 (truncated APC)): 288 nM"
CC1CCN(C2CCN(S(=O)(=O)c3ccc(Br)cc3OC(F)(F)F)CC2)CC1,–,> 10000,–
C#CCC1CCN(C2CCN(S(=O)(=O)c3ccc(Br)cc3)CC2)CC1,–,> 10000,–
Cc1cc(C)c(S(=O)(=O)N2CCC(N3CC(C)CC(C)C3)CC2)c(C)c1 (stereo not shown),–,> 10000,"IC50 (HT-29; HT-29, HT-29 (truncated APC)): 15 nM"
Cc1cc(C)c(S(=O)(=O)N2CCC(N3CCC(C(C)C)CC3)CC2)c(C)c1,–,> 10000,–
CC1CCN(C2CCN(S(=O)(=O)c3cccc(Br)c3)CC2)CC1,–,> 10000,–
C[Si](C)(C)C#CCC1CCN(C2CCN(S(=O)(=O)c3ccc(Br)cc3)CC2)CC1,–,> 10000,IC50 (HT-29; HT-29 (truncated APC)): 1.7 nM; IC50 (DLD-1; DLD-1 (truncated APC)): 2.9 nM
CC1CCN(C2CCN(S(=O)(=O)c3ccc(Cl)cc3)CC2)CC1,–,> 10000,"IC50 (HT-29; HT-29, HT-29 (truncated APC)): 5.6 nM"
Cc1ccc(S(=O)(=O)N2CCC(N3CCC(C)CC3)CC2)cc1,–,> 10000,"IC50 (HT-29; HT-29, HT-29 (truncated APC)): 14 nM"
CC1CCN(C2CCN(S(=O)(=O)c3ccc(Cl)c(Cl)c3)CC2)CC1,–,> 10000,–
C#CCC1CCN(C2CCN(S(=O)(=O)c3ccc(C(=O)c4ccccc4)cc3)CC2)CC1,4.8,> 10000,"IC50 (HT-29; HT-29, HT-29 (truncated APC)): 5.2 nM"
CC1CCN(C2CCN(S(=O)(=O)c3ccccc3Br)CC2)CC1,–,> 10000,–
CC1CCN(C2CCN(S(=O)(=O)c3ccccc3-c3ccc(C(F)(F)F)cc3)CC2)CC1,–,> 10000,"IC50 (HT-29; HT-29, HT-29 (truncated APC)): 57 nM"
CC1CCN(C2CCN(S(=O)(=O)c3cccc(-c4ccccc4)c3)CC2)CC1,–,> 10000,–
COc1ccccc1-c1ccc(S(=O)(=O)N2CCC(N3CCC(C)CC3)CC2)cc1,–,> 10000,"IC50 (HT-29; HT-29, HT-29 (truncated APC)): 19 nM"
CC1CCN(C2CCN(S(=O)(=O)c3ccc(-c4ccccc4F)cc3)CC2)CC1,–,> 10000,–
CC(C(O)c1ccc(O)cc1)N1CCC(Cc2ccccc2)CC1 (stereo not shown) [Ifenprodil],–,–,sensitivity of DLD-1 vs HCT-116 cells to EBP inhibitors (FIG. 10) (DLD1 cells): selectively sensitive
COc1ccc2c(c1)CCC(c1ccccc1)=C2c1ccc(OCCN2CCCC2)cc1 [Nafoxidine],–,–,sensitivity of DLD-1 vs HCT-116 cells to EBP inhibitors (FIG. 10) (DLD1 cells): selectively sensitive
COc1ccc(S(=O)(=O)N2CCC(N3CCC(C)CC3)CC2)cc1 [drawing 83],–,> 10000,–
